Here are results for 7 compounds from PubChem BioAssay (NCI).

Some test systems named below: NCI/ADR-RES ovarian; OVCAR-4 ovarian; HS 578T breast; MALME-3M melanoma; SNB-19 CNS; MCF7 breast; CAKI-1 renal; MDA-MB-231 breast; MDA-N; MDA-MB-435; HL-60(TB) leukemia; SK-MEL-5 melanoma; ACHN renal; SK-MEL-28 melanoma; UACC-62 melanoma; HCC-2998 colon; HOP-62 NSCLC; BT-549 breast; CCRF-CEM leukemia.
Assay in all cases: growth of human tumour cells (NCI), 48 h

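A five-concentration, 48-hour dose response in 96-well plates underlies each endpoint, interpolated linearly between surrounding concentrations. Definition used: TGI = concentration required for complete inhibition of growth.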

In the case of `N#Cc1ccc(C(=O)/C=C/c2ccc(O)c(O)c2)cc1`, the TGI in the assay on NCI/ADR-RES ovarian is greater than 65.8 µM; in the assay with OVCAR-4 ovarian, 25.7 µM; in the assay on HS 578T breast it was greater than 76.6 µM; in the assay with MALME-3M melanoma, 29.3 µM; in the assay on SNB-19 CNS, 29.3 µM; in the assay with MCF7 breast, 26 µM. Besides, the TGI in the assay with CAKI-1 renal came out at 29.6 µM; in the assay on MDA-MB-231 breast, 30.7 µM; in the assay with MDA-N it was 30.7 µM; in the assay with MDA-MB-435 it was 28.5 µM; in the assay with HL-60(TB) leukemia, 19.8 µM; with SK-MEL-5 melanoma, 28.5 µM. Besides, the TGI came to 31.8 µM in the assay on ACHN renal; 29 µM in the assay on SK-MEL-28 melanoma; 32.5 µM in the assay on UACC-62 melanoma; 28.2 µM in the assay on HCC-2998 colon; 32.4 µM in the assay on HOP-62 NSCLC; 25.3 µM in the assay on BT-549 breast. The compound also came in with a TGI in the assay on CCRF-CEM leukemia of 14.3 µM.

Take `Cc1c(F)c(N)c2c(=O)cc(-c3ccc(N)c(F)c3)oc2c1F`: the TGI with NCI/ADR-RES ovarian is 42.4 µM; with OVCAR-4 ovarian it was 48.8 µM; in the assay on HS 578T breast, greater than 95 µM; in the assay on MALME-3M melanoma, greater than 91.4 µM; with SNB-19 CNS, 46.4 µM; with MCF7 breast, 4.39 µM. In addition, the TGI in the assay with CAKI-1 renal is 0.114 µM; in the assay with MDA-MB-231 breast, 46.3 µM; in the assay with MDA-N, greater than 89 µM; in the assay with MDA-MB-435 it was greater than 100 µM; with HL-60(TB) leukemia, greater than 100 µM; with SK-MEL-5 melanoma it was 67 µM. Moreover, the TGI in the assay with ACHN renal was 50.4 µM; in the assay with SK-MEL-28 melanoma, greater than 95.2 µM; with UACC-62 melanoma it was 31 µM; with HCC-2998 colon, greater than 100 µM; in the assay with HOP-62 NSCLC, 46.8 µM; in the assay with BT-549 breast, 36.8 µM. The TGI with CCRF-CEM leukemia was greater than 100 µM.

As for `CCOC(=O)/C(=C\c1ccc(C#N)cc1)C(C)=O`, the TGI with NCI/ADR-RES ovarian was greater than 100 µM; in the assay on OVCAR-4 ovarian, 97.9 µM; in the assay with HS 578T breast it was 88.6 µM; in the assay on MALME-3M melanoma it was 31.5 µM; in the assay with SNB-19 CNS it was greater than 100 µM; in the assay with MCF7 breast it was 61.9 µM. Further, the TGI was greater than 100 µM in the assay with CAKI-1 renal; 33.3 µM in the assay with MDA-MB-231 breast; greater than 100 µM with MDA-N; 98.3 µM with MDA-MB-435; greater than 100 µM with HL-60(TB) leukemia; 41 µM with SK-MEL-5 melanoma. Also, the TGI with ACHN renal was 68.6 µM; in the assay on UACC-62 melanoma it was 17.5 µM; in the assay with HCC-2998 colon it was 19.6 µM; in the assay with HOP-62 NSCLC it was greater than 100 µM; in the assay on BT-549 breast, 37 µM; in the assay with CCRF-CEM leukemia, greater than 100 µM.

Regarding `CN(C)CCCNc1c(C#N)[n+]([O-])c2cc(Cl)ccc2[n+]1[O-]`, the TGI was greater than 57.3 µM in the assay on NCI/ADR-RES ovarian; 14.2 µM in the assay on OVCAR-4 ovarian; greater than 100 µM in the assay with HS 578T breast; 17.4 µM with MALME-3M melanoma; greater than 100 µM in the assay on SNB-19 CNS; greater than 52.7 µM in the assay with MCF7 breast. Further, the TGI was greater than 51.8 µM in the assay with CAKI-1 renal; 37.2 µM in the assay with MDA-MB-231 breast; greater than 59.9 µM in the assay on MDA-N; greater than 67.2 µM in the assay with MDA-MB-435; 30.3 µM in the assay on HL-60(TB) leukemia; 10.9 µM in the assay with SK-MEL-5 melanoma. Moreover, the TGI in the assay with ACHN renal is 22.2 µM; in the assay with SK-MEL-28 melanoma, greater than 100 µM; in the assay on UACC-62 melanoma, 17.4 µM; with HCC-2998 colon, 18.7 µM; in the assay on HOP-62 NSCLC, greater than 48.7 µM; in the assay with BT-549 breast, 31.1 µM. In addition, the TGI in the assay with CCRF-CEM leukemia worked out at 42 µM.

Take `CC(C)=c1sc(=C(C)C)c2c1=NC(C)(C)N=2`: the TGI with NCI/ADR-RES ovarian, in the assay with OVCAR-4 ovarian, with HS 578T breast, in the assay on MALME-3M melanoma, with SNB-19 CNS and with MCF7 breast was greater than 100 µM throughout. Also, the TGI with CAKI-1 renal, in the assay with MDA-MB-231 breast, in the assay with MDA-N, with MDA-MB-435, in the assay with HL-60(TB) leukemia and with SK-MEL-5 melanoma was greater than 100 µM in each case. The TGI in the assay with ACHN renal, with SK-MEL-28 melanoma, with UACC-62 melanoma, in the assay with HCC-2998 colon, with HOP-62 NSCLC and in the assay on BT-549 breast was greater than 100 µM in each case. In addition, the TGI with CCRF-CEM leukemia was greater than 100 µM.

For the compound `CCOc1cc2c(cc1O)CC[C@@H]1[C@@H]2CC[C@]2(C)C(N)CC[C@@H]12` (some centres not stated), the TGI was determined as 8.98 µM with NCI/ADR-RES ovarian; 58.7 µM in the assay on OVCAR-4 ovarian; 23.2 µM in the assay on HS 578T breast; 28.2 µM with MALME-3M melanoma; 28.2 µM in the assay on SNB-19 CNS; 28.1 µM with MCF7 breast. The TGI in the assay on CAKI-1 renal is 22.7 µM; with MDA-MB-231 breast, 5.56 µM; in the assay with MDA-N it was 3.6 µM; with MDA-MB-435, 3.96 µM; in the assay with HL-60(TB) leukemia, greater than 25.1 µM; in the assay with SK-MEL-5 melanoma, 16.7 µM. For the same compound, the TGI in the assay with ACHN renal turned out to be 26.2 µM; in the assay with SK-MEL-28 melanoma, 23.6 µM; in the assay with UACC-62 melanoma, 16.8 µM; in the assay with HCC-2998 colon it was 5.44 µM; in the assay on HOP-62 NSCLC, 40.4 µM; in the assay on BT-549 breast, 30.8 µM. Further, the TGI in the assay on CCRF-CEM leukemia was 18.2 µM.

Regarding `CC1=C(C)C1[N+](=O)[O-]`, the TGI in the assay on NCI/ADR-RES ovarian, in the assay on OVCAR-4 ovarian, in the assay with HS 578T breast, in the assay with MALME-3M melanoma, with SNB-19 CNS and in the assay with MCF7 breast was greater than 100 µM throughout. The TGI in the assay with CAKI-1 renal, in the assay with MDA-MB-231 breast, in the assay with MDA-N, in the assay with MDA-MB-435, in the assay with HL-60(TB) leukemia and in the assay on SK-MEL-5 melanoma was greater than 100 µM each time. The TGI in the assay with ACHN renal, in the assay on SK-MEL-28 melanoma, with UACC-62 melanoma, in the assay with HCC-2998 colon, in the assay with HOP-62 NSCLC and in the assay on BT-549 breast was greater than 100 µM in each case. The same compound registered a TGI in the assay on CCRF-CEM leukemia greater than 100 µM.
